Experimental data as given in patent US9850283B2, “Macrocyclic inhibitors of the PD-1/PD-L1 and CD80(B7-1)/PD-L1 protein/protein interactions” (BRISTOL-MYERS SQUIBB COMPANY, priority 2013, dated 2017).
Where two headings read alike, the source gives them in different places. Positions of bridges follow the written chain, without caps; N, C: chain ends. Non-standard residues stand in square brackets, D forms with d. Residues, ends and D or L forms follow the SMILES beside them. Phe(4-SO2NH2) = N[C@@H](Cc1ccc(S(N)(=O)=O)cc1)C(=O)O; Ala(indol-4-yl) = N[C@@H](Cc1cccc2[nH]ccc12)C(=O)O; Bta = N[C@@H](Cc1csc2ccccc12)C(=O)O; cisHyp = O=C(O)[C@@H]1C[C@H](O)CN1; Hyp = O=C(O)[C@@H]1C[C@@H](O)CN1; NMeNle = CCCC[C@H](NC)C(=O)O; NMeS = CN[C@@H](CO)C(=O)O; NMeA = CN[C@@H](C)C(=O)O; Sar = CNCC(=O)O

Key:
Human PD-L1/PD-1 = target: T1, Human PD-L1/PD-1 (Homo sapiens, UniProt Q9NZQ7); assay: HTRF PD-1-Ig/PD-L1-His binding assay (human PD-L1); settings: cluster symbol; read-out: HTRF IC50 cluster
T1 construct: made in house; host or cells: HEK293T
Procedure, shortened: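 HTRF read-out: Eu cryptate anti-Ig mAb 1 nM final, APC anti-His mAb 20 nM final, added over the binding reaction. Proteins were PD-1-Ig and PD-L1-His ectodomain fusions. Buffer was dPBS, 0.1% BSA, 0.05% Tween-20.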

[1] = target: T2, LK35.2-hPD-L1 cells / PE-labeled PD-1-Ig (Homo sapiens, UniProt Q9NZQ7); assay: LK35.2-hPD-L1 cell binding high-content screening assay; format: cell-based; settings: cluster symbol, read-out: CBA IC50 cluster
T2 construct: expressed in transfected cells; host or cells: LK35.2 mouse B cell line
Procedure, shortened: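 Mouse LK35.2 B cells stably overexpressing human PD-L1 were cultured overnight in RPMI with 10% FCS, then given compound and PE-labeled human PD-1-Ig (1 nM final) for 1 h at 37 °C. After three dPBS washes, bound fluorescence was quantified by high-content imaging.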

[2] = cell line of CBA not given (LK35.2-hPD-L1 or 293T-hPD-L1)
[3] = cell binding assay, cell line not given

T1 sequence (Q9NZQ7 with tags, fused parts or gaps): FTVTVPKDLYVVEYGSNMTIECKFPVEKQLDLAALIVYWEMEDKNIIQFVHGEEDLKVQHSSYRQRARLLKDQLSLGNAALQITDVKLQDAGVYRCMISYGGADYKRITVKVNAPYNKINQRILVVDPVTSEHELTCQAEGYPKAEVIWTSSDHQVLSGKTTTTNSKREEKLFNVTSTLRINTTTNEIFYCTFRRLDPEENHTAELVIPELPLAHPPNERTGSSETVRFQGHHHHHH
T2 sequence (Q9NZQ7 19-290): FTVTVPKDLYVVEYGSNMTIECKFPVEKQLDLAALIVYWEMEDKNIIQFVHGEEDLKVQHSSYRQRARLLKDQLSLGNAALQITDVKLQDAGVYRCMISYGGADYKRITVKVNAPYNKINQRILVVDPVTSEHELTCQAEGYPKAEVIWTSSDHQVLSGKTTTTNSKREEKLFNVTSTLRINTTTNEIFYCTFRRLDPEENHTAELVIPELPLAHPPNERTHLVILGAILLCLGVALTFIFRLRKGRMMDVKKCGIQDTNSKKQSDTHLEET

Row | Structure (SMILES) | IC50 (Human PD-L1/PD-1) | IC50 [1, 2] | IC50 [1, 3]
1 | CCCC[C@H]1C(=O)N(C)[C@@H](CCCC)C(=O)N[C@@H](CCCNC(=N)N)C(=O)N[C@H](C(=O)NCC(N)=O)CSCC(=O)N[C@@H](Cc2cccc3[nH]ccc23)C(=O)N(C)[C@@H](C)C(=O)N[C@@H](CC(N)=O)C(=O)N2CCC[C@H]2C(=O)N[C@@H](Cc2cnc[nH]2)C(=O)N[C@@H](CC(C)C)C(=O)N2CCC[C@H]2C(=O)N[C@@H](Cc2c[nH]c3ccccc23)C(=O)N[C@@H](CO)C(=O)N[C@@H](Cc2csc3ccccc23)C(=O)N1C [Example 1120] ({CH2CO}-[Ala(indol-4-yl)][NMeA]NPHLPWS[Bta][NMeNle][NMeNle]RCG-NH2; thioether N-14) | 6.76 to 30.3 nM | 0.158 to 4.71 nM | 
2 | CCCC[C@H]1C(=O)N(C)[C@@H](CCCC)C(=O)N[C@@H](CCC(=O)O)C(=O)N[C@H](C(=O)NCC(N)=O)CSCC(=O)N[C@@H](Cc2ccc(O)cc2)C(=O)N(C)[C@@H](C)C(=O)N[C@@H](CC(=O)O)C(=O)N2CCC[C@H]2C(=O)N[C@@H](Cc2cnc[nH]2)C(=O)N[C@@H](CCCCN)C(=O)N2C[C@H](O)C[C@H]2C(=O)N[C@@H](Cc2c[nH]c3ccccc23)C(=O)N[C@@H](CCCCN)C(=O)N[C@@H](Cc2c[nH]c3ccccc23)C(=O)N1C [Example 5069] ({CH2CO}-Y[NMeA]DPHK[Hyp]WKW[NMeNle][NMeNle]ECG-NH2; thioether N-14) | 0.385 to 6.74 nM |  | 0.158 to 4.71 nM
3 | CCCC[C@H]1C(=O)N(C)[C@@H](Cc2ccccc2)C(=O)N[C@@H](CCCNC(=N)N)C(=O)N[C@H](C(=O)NCC(N)=O)CSCC(=O)N[C@@H](Cc2ccccc2)C(=O)N(C)[C@@H](C)C(=O)N[C@@H](CC(N)=O)C(=O)N2CCC[C@H]2C(=O)N[C@@H](Cc2cnc[nH]2)C(=O)N[C@@H](CC(C)C)C(=O)N(C)CC(=O)N[C@@H](Cc2c[nH]c3ccccc23)C(=O)N[C@@H](CO)C(=O)N[C@@H](Cc2c[nH]c3ccccc23)C(=O)N1C [Example 1003] (HELM PEPTIDE1{[O=C(C[*:3])[*:2]].F.[meA].N.P.H.L.[Sar].W.S.W.[CCCC[C@@H](C(=O)[*:2])N(C)[*:1]].[meF].R.C.G.[am]}$PEPTIDE1,PEPTIDE1,1:R3-15:R3$$$V2.0) | > 30.5 nM | > 74.3 nM | 
4 | CCCC[C@H]1C(=O)N(C)[C@@H](CCCC)C(=O)N[C@@H](CCCNC(=N)N)C(=O)N[C@H](C(=O)NCC(N)=O)CSCC(=O)N[C@@H](Cc2ccc(S(N)(=O)=O)cc2)C(=O)N(C)[C@@H](C)C(=O)N[C@@H](CC(N)=O)C(=O)N2CCC[C@H]2C(=O)N[C@@H](Cc2cnc[nH]2)C(=O)N[C@@H](CC(C)C)C(=O)N(C)CC(=O)N[C@@H](Cc2c[nH]c3ccccc23)C(=O)N[C@@H](CO)C(=O)N[C@@H](Cc2c[nH]c3ccccc23)C(=O)N1C [Example 1093] ({CH2CO}-[Phe(4-SO2NH2)][NMeA]NPHL[Sar]WSW[NMeNle][NMeNle]RCG-NH2; thioether N-14) | > 30.5 nM | > 74.3 nM | 
5 | CCCC[C@H]1C(=O)N(C)[C@@H](CCCC)C(=O)N[C@@H](C(C)C)C(=O)N[C@H](C(=O)NCC(N)=O)CSCC(=O)N[C@@H](Cc2ccccc2)C(=O)N(C)[C@@H](C)C(=O)N[C@@H](CC(N)=O)C(=O)N2CCC[C@H]2C(=O)N[C@@H](Cc2cnc[nH]2)C(=O)N[C@@H](CC(C)C)C(=O)N(C)CC(=O)N[C@@H](Cc2c[nH]c3ccccc23)C(=O)N[C@@H](CO)C(=O)N[C@@H](Cc2c[nH]c3ccccc23)C(=O)N1C [Example 5016] ({CH2CO}-F[NMeA]NPHL[Sar]WSW[NMeNle][NMeNle]VCG-NH2; thioether N-14) | 6.76 to 30.3 nM |  | 4.78 to 72.9 nM
6 | CCCC[C@H]1C(=O)N(C)[C@@H](CCCC)C(=O)N[C@@H](CCCNC(=N)N)C(=O)N[C@H](C(=O)NCC(N)=O)CSCC(=O)N[C@@H](Cc2ccc(O)cc2)C(=O)N(C)[C@@H](C)C(=O)N[C@@H](CC(N)=O)C(=O)N2CCC[C@H]2C(=O)N[C@@H](C)C(=O)N[C@@H](CC(C)C)C(=O)N2C[C@@H](O)C[C@H]2C(=O)N[C@@H](Cc2c[nH]c3ccccc23)C(=O)N[C@@H](CO)C(=O)N[C@@H](Cc2c[nH]c3ccccc23)C(=O)N1C [Example 1142] ({CH2CO}-Y[NMeA]NPAL[cisHyp]WSW[NMeNle][NMeNle]RCG-NH2; thioether N-14) | 6.76 to 30.3 nM | 4.78 to 72.9 nM | 
7 | CCCC[C@H]1C(=O)N(C)[C@@H](CCCC)C(=O)N[C@@H](CCCNC(=N)N)C(=O)N[C@H](C(=O)NCC(N)=O)CSCC(=O)N[C@@H](Cc2ccccc2)C(=O)N(C)[C@@H](C)C(=O)N[C@@H](CC(N)=O)C(=O)N2CCC[C@H]2C(=O)N[C@@H](Cc2cnc[nH]2)C(=O)N[C@@H](CC(C)C)C(=O)N(C)CC(=O)N[C@@H](Cc2c[nH]c3ccccc23)C(=O)N(C)[C@@H](CO)C(=O)N[C@@H](Cc2c[nH]c3ccccc23)C(=O)N1C [Example 1078] ({CH2CO}-F[NMeA]NPHL[Sar]W[NMeS]W[NMeNle][NMeNle]RCG-NH2; thioether N-14) | > 30.5 nM | > 74.3 nM | 
